Experimental data as given in the supplement of paper PMC10307832.

How the values were obtained:
Assay in all cases: relative viability (nuclei count vs DMSO), 5 days (fraction); higher = more cells survive
EMC-BAC-2 = tested on: EMC-BAC-2
Outline: (§1)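 For relative viability, nuclei counts in treated wells were divided by those in vehicle wells. Lung cancer cell lines had been pin-tool dosed in 1536-well plates the day after seeding and cultured for 5 days, then fixed and stained in one step (final 0.05% Triton X-100, 1% formaldehyde, 1 ug/ml Hoechst) and imaged at 4×. Doses were one drug alone or a fixed anchor-drug dose plus five library-drug doses (not always all listed) in √10 steps, and values are duplicate-plate medians.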

EPLC-272H = tested on: EPLC-272H
Outline: as §1

HCC-44 = tested on: HCC-44
Outline: as §1

LCLC-103H = tested on: LCLC-103H
Outline: as §1

NCI-H23 = tested on: NCI-H23
Outline: as §1

NCI-H322M = tested on: NCI-H322M
Outline: as §1

NCI-H2085 = tested on: NCI-H2085
Outline: as §1

SK-MES-1 = tested on: SK-MES-1
Outline: as §1

NCI-H1993 = tested on: NCI-H1993
Outline: as §1

NCI-H2405 = tested on: NCI-H2405
Outline: as §1

H3255 = tested on: H3255
Outline: as §1

NCI-H650 = tested on: NCI-H650
Outline: as §1

LCLC-97TM1 = tested on: LCLC-97TM1
Outline: as §1

ChaGo-K-1 = tested on: ChaGo-K-1
Outline: as §1

HCC-827 = tested on: HCC-827
Outline: as §1

NCI-H1395 = tested on: NCI-H1395
Outline: as §1

NCI-H1793 = tested on: NCI-H1793
Outline: as §1

UMC-11 = tested on: UMC-11
Outline: as §1

NCI-H520 = tested on: NCI-H520
Outline: as §1

NCI-H1944 = tested on: NCI-H1944
Outline: as §1

NCI-H2087 = tested on: NCI-H2087
Outline: as §1

NCI-H1355 = tested on: NCI-H1355
Outline: as §1

NCI-H1651 = tested on: NCI-H1651
Outline: as §1

COc1cc(N2CCC(C(N)=O)CC2)ccc1Nc1nc(N)c(Cl)c(Nc2ccccc2S(=O)(=O)C(C)C)n1 [HG-5-88-01] + Nc1ncn([C@H]2C[C@H](O)[C@@H](CO)O2)c(=O)n1 [Decitabine] (partner 2 µM)
relative viability (EMC-BAC-2; first compound 0.04 µM): 1
relative viability (EMC-BAC-2; first compound 0.1265 µM): 1.07
relative viability (EMC-BAC-2; first compound 0.4 µM): 0.965
relative viability (EMC-BAC-2; first compound 1.265 µM): 0.874
relative viability (EMC-BAC-2; first compound 4 µM): 0.802
relative viability (EPLC-272H; first compound 0.04 µM): 0.32
relative viability (EPLC-272H; first compound 0.1265 µM): 0.371
relative viability (EPLC-272H; first compound 0.4 µM): 0.47
relative viability (EPLC-272H; first compound 1.265 µM): 0.266
relative viability (EPLC-272H; first compound 4 µM): 0.117
relative viability (HCC-44; first compound 0.04 µM): 0.936
relative viability (HCC-44; first compound 0.1265 µM): 0.996
relative viability (HCC-44; first compound 0.4 µM): 0.913
relative viability (HCC-44; first compound 1.265 µM): 0.996
relative viability (HCC-44; first compound 4 µM): 0.817
relative viability (LCLC-103H; first compound 0.04 µM): 0.776
relative viability (LCLC-103H; first compound 0.1265 µM): 0.735
relative viability (LCLC-103H; first compound 0.4 µM): 0.738
relative viability (LCLC-103H; first compound 1.265 µM): 0.713
relative viability (LCLC-103H; first compound 4 µM): 0.74
relative viability (NCI-H23; first compound 0.04 µM): 0.365
relative viability (NCI-H23; first compound 0.1265 µM): 0.331
relative viability (NCI-H23; first compound 0.4 µM): 0.327
relative viability (NCI-H23; first compound 1.265 µM): 0.282
relative viability (NCI-H23; first compound 4 µM): 0.329
relative viability (NCI-H322M; first compound 0.04 µM): 0.693
relative viability (NCI-H322M; first compound 0.1265 µM): 0.68
relative viability (NCI-H322M; first compound 0.4 µM): 0.781
relative viability (NCI-H322M; first compound 1.265 µM): 0.483
relative viability (NCI-H322M; first compound 4 µM): 0.706
relative viability (NCI-H2085; first compound 0.04 µM): 0.6
relative viability (NCI-H2085; first compound 0.1265 µM): 0.625
relative viability (NCI-H2085; first compound 0.4 µM): 0.582
relative viability (NCI-H2085; first compound 1.265 µM): 0.544
relative viability (NCI-H2085; first compound 4 µM): 0.607
relative viability (SK-MES-1; first compound 0.04 µM): 0.408
relative viability (SK-MES-1; first compound 0.1265 µM): 0.368
relative viability (SK-MES-1; first compound 0.4 µM): 0.407
relative viability (SK-MES-1; first compound 1.265 µM): 0.459
relative viability (SK-MES-1; first compound 4 µM): 0.34
relative viability (NCI-H1993; first compound 0.04 µM): 0.583
relative viability (NCI-H1993; first compound 0.1265 µM): 0.709
relative viability (NCI-H1993; first compound 0.4 µM): 0.586
relative viability (NCI-H1993; first compound 4 µM): 0.545
relative viability (NCI-H2405; first compound 0.04 µM): 0.67
relative viability (NCI-H2405; first compound 0.1265 µM): 0.754
relative viability (NCI-H2405; first compound 0.4 µM): 0.783
relative viability (NCI-H2405; first compound 1.265 µM): 0.624
relative viability (NCI-H2405; first compound 4 µM): 0.672
relative viability (H3255; first compound 0.04 µM): 0.589
relative viability (H3255; first compound 0.1265 µM): 0.629
relative viability (H3255; first compound 0.4 µM): 0.568
relative viability (H3255; first compound 4 µM): 0.574
relative viability (NCI-H650; first compound 0.04 µM): 0.357
relative viability (NCI-H650; first compound 0.1265 µM): 0.328
relative viability (NCI-H650; first compound 0.4 µM): 0.435
relative viability (NCI-H650; first compound 1.265 µM): 0.366
relative viability (NCI-H650; first compound 4 µM): 0.306
relative viability (LCLC-97TM1; first compound 0.04 µM): 0.21
relative viability (LCLC-97TM1; first compound 0.1265 µM): 0.219
relative viability (LCLC-97TM1; first compound 0.4 µM): 0.209
relative viability (LCLC-97TM1; first compound 1.265 µM): 0.229
relative viability (LCLC-97TM1; first compound 4 µM): 0.128
relative viability (ChaGo-K-1; first compound 0.04 µM): 0.524
relative viability (ChaGo-K-1; first compound 0.1265 µM): 0.515
relative viability (ChaGo-K-1; first compound 0.4 µM): 0.51
relative viability (ChaGo-K-1; first compound 1.265 µM): 0.542
relative viability (ChaGo-K-1; first compound 4 µM): 0.552
relative viability (HCC-827; first compound 0.04 µM): 0.292
relative viability (HCC-827; first compound 0.1265 µM): 0.304
relative viability (HCC-827; first compound 0.4 µM): 0.354
relative viability (HCC-827; first compound 1.265 µM): 0.19
relative viability (HCC-827; first compound 4 µM): 0.209
relative viability (NCI-H1395; first compound 0.04 µM): 0.765
relative viability (NCI-H1395; first compound 0.1265 µM): 0.712
relative viability (NCI-H1395; first compound 0.4 µM): 0.789
relative viability (NCI-H1395; first compound 1.265 µM): 0.682
relative viability (NCI-H1395; first compound 4 µM): 0.751
relative viability (NCI-H1793; first compound 0.04 µM): 0.554
relative viability (NCI-H1793; first compound 0.1265 µM): 0.518
relative viability (NCI-H1793; first compound 0.4 µM): 0.701
relative viability (NCI-H1793; first compound 1.265 µM): 0.408
relative viability (NCI-H1793; first compound 4 µM): 0.499
relative viability (UMC-11; first compound 0.04 µM): 0.638
relative viability (UMC-11; first compound 0.1265 µM): 0.706
relative viability (UMC-11; first compound 0.4 µM): 0.604
relative viability (UMC-11; first compound 1.265 µM): 0.526
relative viability (UMC-11; first compound 4 µM): 0.672
relative viability (NCI-H520; first compound 0.04 µM): 0.483
relative viability (NCI-H520; first compound 0.1265 µM): 0.478
relative viability (NCI-H520; first compound 0.4 µM): 0.584
relative viability (NCI-H520; first compound 1.265 µM): 0.516
relative viability (NCI-H520; first compound 4 µM): 0.538
relative viability (NCI-H1944; first compound 0.04 µM): 0.398
relative viability (NCI-H1944; first compound 0.1265 µM): 0.417
relative viability (NCI-H1944; first compound 0.4 µM): 0.554
relative viability (NCI-H1944; first compound 1.265 µM): 0.457
relative viability (NCI-H1944; first compound 4 µM): 0.514
relative viability (NCI-H2087; first compound 0.04 µM): 0.315
relative viability (NCI-H2087; first compound 0.1265 µM): 0.365
relative viability (NCI-H2087; first compound 0.4 µM): 0.325
relative viability (NCI-H2087; first compound 1.265 µM): 0.246
relative viability (NCI-H2087; first compound 4 µM): 0.242
relative viability (NCI-H1355; first compound 0.04 µM): 0.337
relative viability (NCI-H1355; first compound 0.1265 µM): 0.382
relative viability (NCI-H1355; first compound 0.4 µM): 0.38
relative viability (NCI-H1355; first compound 1.265 µM): 0.334
relative viability (NCI-H1355; first compound 4 µM): 0.331
relative viability (NCI-H1651; first compound 0.04 µM): 0.536
relative viability (NCI-H1651; first compound 0.1265 µM): 0.635
relative viability (NCI-H1651; first compound 0.4 µM): 0.717
relative viability (NCI-H1651; first compound 1.265 µM): 0.581
relative viability (NCI-H1651; first compound 4 µM): 0.714
